Test results as given in US8377434B2, “Cosmetic composition for exfoliating skin keratin” (Amorepacific Corporation, priority 2006, dated 2013).

Tested on: skin
Test: in vivo and ex vivo studies of N-acetyl glucosamine on skin

CC(=O)N[C@H]1C(O)O[C@H](CO)[C@@H](O)[C@@H]1O (some centres unmarked) [N-acetyl glucosamine]
production of hyaluronic acid: promote the production of hyaluronic acid
improvement of excessive pigmentation, skin tone and barrier function (in vivo and ex vivo studies): effective in improving excessive pigmentation, skin tone and barrier function
